Experiments:
[1] = target: T1, Serine/threonine-protein kinase pim-1 (Homo sapiens, UniProt P11309); test: The phosphorylation of biotinylated-BAD (S112) peptide by full length recombinant Pim-1, Pim-2, or Pim-3 protein was detected with streptavidin:Allophycocyanin (APC) conjugate and a europium (Eu) labeled antibody directed against phosphorylated-BAD (S112). […] The fluorescence is directly proportional to the amount of phosphorylated BAD peptide present in the reaction. […] The Reaction Buffer consisted of 45 mM Hepes, pH 7.0, 15 mM NaCl, and 1 mM MgCl. The quench/detection buffer consisted of 50 mM Tris, 100 mM NaCl, 0.05% BSA, 0.1% Tween and 3 mM EDTA. Biotinylated BAD peptide (Biopeptide), 10 mM ATP (Sigma), Labeled p-BAD (S112) mAb (Cell Signalling and Perkin Elmer) [with 0.05% BSA and 2 mM DTT added] streptavidin:Allophycocyanin [Perkin Elmer]. […] Initial incubations were carried out at RT (22° C.) for 30 min for both Pim-1 and for Pim-2. Pim enzyme is added to compound in buffer, and plates are incubated of 30 min. Biotinylated BAD and ATP are added and plates are incubated for 1 h. A mixture of labeled p-BAD (S112) mAb and quench/detection buffer are added and incubated for 2 h. Fluorescence was measured by an HTRF® Envision microplate reader.
[2] = target: T2, Serine/threonine-protein kinase pim-2 (Homo sapiens, UniProt Q9P1W9); test: Homogeneous Time Resolved Fluorescence Assay (HTRF): The assay for the determination of Pim activity is based on the formation of phosphorylated biotinylated-BAD peptide at the Serine 112 residue (S112) and employs HTRF® (homogeneous time resolved fluorescence) technology to detect the product in a 384-well plate format. The phosphorylation of biotinylated-BAD (S112) peptide by full length recombinant Pim-1, Pim-2, or Pim-3 protein was detected with streptavidin:Allophycocyanin (APC) conjugate and a europium (Eu) labeled antibody directed against phosphorylated-BAD (S112). Excitation of Eu by a high energy laser light (337 nm) leads to a transfer of energy to the APC molecule, and results in an emission at 665 nm. The fluorescence is directly proportional to the amount of phosphorylated BAD peptide present in the reaction. […] A reference compound was included on each assay plate [Costar 3658] in order to validate that plate; on one plate of every assay run, two additional reference compounds were included. The Reaction Buffer consisted of 45 mM Hepes, pH 7.0, 15 mM NaCl, and 1 mM MgCl. The quench/detection buffer consisted of 50 mM Tris, 100 mM NaCl, 0.05% BSA, 0.1% Tween and 3 mM EDTA. Biotinylated BAD peptide (Biopeptide), 10 mM ATP (Sigma), Labeled p-BAD (S112) mAb (Cell Signalling and Perkin Elmer) [with 0.05% BSA and 2 mM DTT added] streptavidin:Allophycocyanin [Perkin Elmer]. Final concentrations either Pim-1 enzyme [5 pM], or Pim-2 enzyme [0.5 pM], DMSO [1%], BLC BAD (S112) [0.5 μM], ATP [1.5 μM], streptavidin:Allophycocyanin [0.002 mg/mL] and biotinylated-BAD (S112) mAb [100 pM]. Initial incubations were carried out at RT (22° C.) for 30 min for both Pim-1 and for Pim-2. Pim enzyme is added to compound in buffer, and plates are incubated of 30 min. Biotinylated BAD and ATP are added and plates are incubated for 1 h. A mixture of labeled p-BAD (S112) mAb and quench/detection buffer are added and incubated for 2 h. Fluorescence was measured by an HTRF® Envision microplate reader.
[3] = target: T1, Serine/threonine-protein kinase pim-1; test: (§1) Homogeneous Time Resolved Fluorescence Assay (HTRF): The assay for the determination of Pim activity is based on the formation of phosphorylated biotinylated-BAD peptide at the Serine 112 residue (S112) and employs HTRF® (homogeneous time resolved fluorescence) technology to detect the product in a 96-well plate format. The phosphorylation of biotinylated-BAD (S112) peptide by full length recombinant Pim-1, Pim-2, or Pim-3 protein was detected with streptavidin:Allophycocyanin (APC) conjugate and a europium (Eu) labeled antibody directed against phosphorylated-BAD (S112). Excitation of Eu by a high energy laser light (337 nm) leads to a transfer of energy to the APC molecule, and results in an emission at 665 nm. The fluorescence is directly proportional to the amount of phosphorylated BAD peptide present in the reaction. […] A reference compound was included on each assay plate in order to validate that plate; on one plate of every assay run, two additional reference compounds were included. The final buffer conditions were as follows: 60 mM Hepes, pH 7.0, 0.05% BSA, 2 mM DTT. Incubations were carried out at RT (22° C.) for 2 h for Pim-1, 1 hour and 30 min for Pim-3, and 45 min for Pim-2. The reaction was stopped by the addition of 3 mM EDTA, and fluorescence was measured by an HTRF® Rubystar microplate reader.
[4] = target: T2, Serine/threonine-protein kinase pim-2; test: as §1

| IC50 [1] | IC50 [2] | IC50 [3] | IC50 [4] | SMILES |
| --- | --- | --- | --- | --- |
| 0.434 nM | 1.11 nM |  |  | CC(C)(C)Nc1ccc2cccc(-c3cc4c([nH]3)CCNC4=O)c2n1 |
| 6.04 nM |  |  |  | Cc1nc2cccc(-c3cc4c([nH]3)CCNC4=O)c2nc1-c1c(F)cccc1Cl |
| 98.5 nM | 187 nM |  |  | Cc1nc2cccc(-c3cc4c([nH]3)CCNC4=O)c2nc1-c1cccnc1Cl |
| 2 nM | 1.8 nM |  |  | Nc1nc2cccc(-c3cc4c([nH]3)CCNC4=O)c2nc1Oc1ccccc1 |
| 10.3 nM | 33.4 nM |  |  | Cc1nc2cccc(-c3cc4c([nH]3)CCNC4=O)c2nc1-c1ccc(N)cc1Cl |
| 0.3 nM | 0.8 nM |  |  | CC1(C)CCCN1c1cnc2cccc(-c3cc4c([nH]3)CCNC4=O)c2n1 |
| 50.7 nM |  |  |  | Cc1nc2cccc(-c3cc4c([nH]3)CCNC4=O)c2nc1-c1cnccc1Cl |
|  |  | 7 nM | 57.2 nM | O=C1NCCc2[nH]c(-c3cccc4ccc(N[C@H]5CC[C@H](O)CC5)nc34)cc21 |
| 0.4 nM | 0.8 nM |  |  | CC1(C)CCN1c1cnc2cccc(-c3cc4c([nH]3)CCNC4=O)c2n1 |
| 10.3 nM | 7.8 nM |  |  | Cc1nc2cccc(-c3cc4c(n3C)C(CO)NC4=O)c2nc1NC(C)(C)C (racemic) |
| 2.32 nM | 2.16 nM |  |  | Cc1nc2cccc(-c3cc4c([nH]3)C(CO)NC4=O)c2nc1NC(C)(C)C (racemic) |

Further lines, the compound ahead of its results:

| SMILES | IC50 [1] | IC50 [2] | IC50 [3] | IC50 [4] |
| --- | --- | --- | --- | --- |
| Cc1nc2cccc(-c3cc4c([nH]3)CCNC4=O)c2nc1N[C@H]1C[C@@H](N(C)C)C1 | 2 nM | 4 nM |  |  |
| Cn1c(NC(C)(C)C)nc2c(-c3cc4c([nH]3)CNC4=O)cccc2c1=O |  | 0.193 nM |  |  |
| Cc1nc2cccc(-c3cc4c([nH]3)CCNC4=O)c2nc1N[C@H]1C[C@@H](N2CCOCC2)C1 | 6 nM |  |  |  |
| Cc1nc2cccc(-c3cc4c([nH]3)CCNC4=O)c2nc1NC(C)(C)CCS(C)(=O)=O | 232 nM | 98.6 nM |  |  |
| Cc1nc2cccc(-c3cc4c([nH]3)CCNC4=O)c2nc1N[C@H]1C[C@@H](NCC(F)F)C1 | 2 nM | 2 nM |  |  |
| Cc1nc2cccc(-c3cc4c([nH]3)CCN/C4=N/O)c2nc1NC(C)(C)C | 9 nM | 12 nM |  |  |
| Cc1nc2cccc(-c3cc4c([nH]3)CCNC4=O)c2nc1NC(C)(C)C(N)=O | 6.2 nM | 22.7 nM |  |  |
| Cc1nc2cccc(-c3cc4c([nH]3)CCNC4=O)c2nc1NC(C)C(C)C (racemic) | 1.2 nM | 1.8 nM |  |  |

Reference: ChEMBL document CHEMBL3886836, “Amides as pim inhibitors” (2016)
